Measured values taken from patent US20070027130A1, “Tricyclic 6-alkylidene-penem beta-lactamase inhibitors and beta-lactam antibiotic combination: a broad spectrum antibiotic” (priority 2005, published 2007).
Converted amounts (≈) assume the structure as drawn.

How the values were obtained:
Assay in all cases: MIC microbroth dilution
Type in all cases: cell-based
E. cloacae GC 1475 (P99) = settings: Enterobacter cloacae, β-lactamase class C, MHBII, 35° C. 18 hr, read-out: Minimal Inhibitory Concentration
Protocol: (§1) The in vitro activities of the antibiotics were determined by the microbroth dilution method as recommended by the National Committee for Clinical Laboratory Standards (NCCLS). (NCCLS. 2000. Methods for Dilution Antimicrobial Susceptibility Tests for Bacteria That Grow Aerobically; Approved Standards: M7-A5, vol. 19. National Committee for Clinical Laboratory Standards, Villanova, Pa.). Mueller-Hinton II broth (MHBII) (BBL Cockeysville, Md.), was used for the testing procedure. […]. The plates were incubated for 18-22 hours at 35 C. in ambient air.

[1] = tested on: E. cloacae PT 967 Inducible AmpC; settings: Enterobacter cloacae, β-lactamase class C, MHBII, 35° C. 18 hr, read-out: Minimal Inhibitory Concentration
Protocol: as §1

[2] = tested on: E. coli GAR 5929 TEM, OXA, Act-1 , CTX (By PCR only); settings: Escherichia coli, β-lactamase class A, C, D, MHBII, 35° C. 18 hr, read-out: Minimal Inhibitory Concentration
Protocol: as §1

[3] = tested on: E. coli GAR 6649 TEM, OXA, CTX (By PCR only); settings: Escherichia coli, β-lactamase class A, A (ESBL), D, MHBII, 35° C. 18 hr, read-out: Minimal Inhibitory Concentration
Protocol: as §1

E. coli GC 1684 (TEM-10) = settings: Escherichia coli, β-lactamase class A (ESBL), MHBII, 35° C. 18 hr, read-out: Minimal Inhibitory Concentration
Protocol: as §1

E. coli GC 1807 OXA-7 = settings: Escherichia coli, GC1807OXA7, β-lactamase class D, MHBII, 35° C. 18 hr, read-out: Minimal Inhibitory Concentration
Protocol: as §1

[4] = tested on: E. coli GC 2149 (ACT-1; TEM-1 + pl 5.6); settings: Escherichia coli, β-lactamase class A, A (ESBL), C, MHBII, 35° C. 18 hr, read-out: Minimal Inhibitory Concentration
Protocol: as §1

E. coli GC 2805 (CcrA) = settings: Escherichia coli, 18 h, read-out: Minimal Inhibitory Concentration
Protocol: as §1

[5] = tested on: E. coli GC 5901 (TEM-1 and SHV-8); settings: Escherichia coli, β-lactamase class A, A (ESBL), MHBII, 35° C. 18 hr, read-out: Minimal Inhibitory Concentration
Protocol: as §1

E. coli GC 6539 CMY-2 = settings: Escherichia coli, GC6539CMY2, β-lactamase class C, MHBII, 35° C. 18 hr, read-out: Minimal Inhibitory Concentration
Protocol: as §1

[6] = tested on: K. pn GC 1507 (TEM-9 + SHV-1); settings: Klebsiella pneumoniae, β-lactamase class A, A (ESBL), MHBII, 35° C. 18 hr, read-out: Minimal Inhibitory Concentration
Protocol: as §1

K. pn GC 1830 (SHV-2) = settings: Klebsiella pneumoniae, β-lactamase class A (ESBL), MHBII, 35° C. 18 hr, read-out: Minimal Inhibitory Concentration
Protocol: as §1

K. pn GC 1832 (SHV-4) = settings: Klebsiella pneumoniae, β-lactamase class A (ESBL), MHBII, 35° C. 18 hr, read-out: Minimal Inhibitory Concentration
Protocol: as §1

[7] = tested on: K. pn GC 2006 (TEM-10 + SHV-1); settings: Klebsiella pneumoniae, β-lactamase class A, A (ESBL), MHBII, 35° C. 18 hr, read-out: Minimal Inhibitory Concentration
Protocol: as §1

[8] = tested on: K. pn GC 6494 (TEM-1 + SHV-5); settings: Klebsiella pneumoniae, β-lactamase class A, A (ESBL), MHBII, 35° C. 18 hr, read-out: Minimal Inhibitory Concentration
Protocol: as §1

K. pn GC 6639 (SHV-13) = settings: Klebsiella pneumoniae, β-lactamase class A (ESBL), MHBII, 35° C. 18 hr, read-out: Minimal Inhibitory Concentration
Protocol: as §1

[9] = tested on: K. pneumoniae GC 7645 TEM-30 TEM-1 KPC-2 SHV-12; settings: Klebsiella pneumoniae, 18 h, read-out: Minimal Inhibitory Concentration
Protocol: as §1

[10] = tested on: K. pneumoniae GC 7821 DHA 1; settings: Klebsiella pneumoniae, GC7821DHA1, β-lactamase class C, MHBII, 35° C. 18 hr, read-out: Minimal Inhibitory Concentration
Protocol: as §1

[11] = tested on: K. pneumoniae GC 7822 Act 1; settings: Klebsiella pneumoniae, GC7822ACT1, β-lactamase class C, MHBII, 35° C. 18 hr, read-out: Minimal Inhibitory Concentration
Protocol: as §1

[12] = tested on: M. morganii GC 1617 TEM-10 + inducible AmpC; settings: Morganella morganii, β-lactamase class A (ESBL), C, MHBII, 35° C. 18 hr, read-out: Minimal Inhibitory Concentration
Protocol: as §1

[13] = tested on: P. aeruginosa GC 1764 (AmpC); settings: Pseudomonas aeruginosa, β-lactamase class C, MHBII, 35° C. 18 hr, read-out: Minimal Inhibitory Concentration
Protocol: as §1

[14] = tested on: P. aeruginosa GC 4161 Stably derepressed AmpC; settings: Pseudomonas aeruginosa, 18 h, read-out: Minimal Inhibitory Concentration
Protocol: as §1

[15] = tested on: P. aeruginosa PT 9236 PTZ-R; settings: Pseudomonas aeruginosa, PT9236PTZR; P. aeruginosa PT 9236, piperacillin-tazobactam-resistant; MHBII, 35° C. 18 hr; read-out: Minimal Inhibitory Concentration
Protocol: as §1

[16] = tested on: S. marcescens GC 4145 Inducible AmpC; settings: Serratia marcescens, β-lactamase class C, MHBII, 35° C. 18 hr, read-out: Minimal Inhibitory Concentration
Protocol: as §1

[17] = tested on: S. marcescens PT 696 Inducible AmpC; settings: Serratia marcescens, β-lactamase class C, MHBII, 35° C. 18 hr, read-out: Minimal Inhibitory Concentration
Protocol: as §1

## CO/N=C(\C(=O)N[C@@H]1C(=O)N2C(C(=O)[O-])=C(C[N+]3(C)CCCC3)CS[C@H]12)c1csc(N)n1 [Cefepime]
E. cloacae GC 1475 (P99)
  MIC: 1 µg/mL (≈ 2.08 µM)
[1]
  MIC: 0.12 µg/mL (≈ 0.25 µM)
[2]
  MIC: > 16 µg/mL
[3]
  MIC: > 16 µg/mL
E. coli GC 1684 (TEM-10)
  MIC: > 16 µg/mL
E. coli GC 1807 OXA-7
  MIC: 0.12 µg/mL (≈ 0.25 µM)
[4]
  MIC: 16 µg/mL (≈ 33.3 µM)
E. coli GC 2805 (CcrA)
  MIC: > 16 µg/mL
[5]
  MIC: > 16 µg/mL
E. coli GC 6539 CMY-2
  MIC: 2 µg/mL (≈ 4.16 µM)
[6]
  MIC: 8 µg/mL (≈ 16.6 µM)
K. pn GC 1830 (SHV-2)
  MIC: 2 µg/mL (≈ 4.16 µM)
K. pn GC 1832 (SHV-4)
  MIC: 2 µg/mL (≈ 4.16 µM)
[7]
  MIC: > 16 µg/mL
[8]
  MIC: 4 µg/mL (≈ 8.32 µM)
K. pn GC 6639 (SHV-13)
  MIC: 8 µg/mL (≈ 16.6 µM)
[9]
  MIC: > 16 µg/mL
[10]
  MIC: 0.06 µg/mL (≈ 0.125 µM)
[11]
  MIC: > 16 µg/mL
[12]
  MIC: 0.25 µg/mL (≈ 0.52 µM)
[13]
  MIC: 8 µg/mL (≈ 16.6 µM)
[14]
  MIC: > 16 µg/mL
[15]
  MIC: > 16 µg/mL
[16]
  MIC: 1 µg/mL (≈ 2.08 µM)
[17]
  MIC: 0.5 µg/mL (≈ 1.04 µM)
